US11807852B2, “Compositions and methods for reactivating latent immunodeficiency virus” (The J. David Gladstone Institutes, a testamentary trust …, priority 2014, dated 2023)
Entries after “also recorded” stand apart in the source; their conditions may differ.

Columns and labels:
[1] = cited from earlier work
[2] = tested on: J-Lat cells (clone A2: LTR-Tat-IRES-GFP); assay type: cell-based
Method: To test this hypothesis, J-Lat cells (clone A2: LTR-Tat-IRES-GFP) were treated with SMYD2 inhibitors. […] Both cell lines were co-treated with X2 and Ingenol 3,20-dibenzoate (a protein kinase C (PKC) activator), JQ1 (BET-bromodomain inhibitor), or the histone deacetylase (HDAC) inhibitor suberoylanilidehydroxamic acid (SAHA).

[3] = tested on: A2 J-Lat cells, A72 J-Lat cells, and primary CD4+ T cells; experiment: ApoTox-Glo Triplex Assay: viability, cytotoxicity, caspase-3/7; assay type: cell-based; conditions: A2, A72 J-Lat cells and primary CD4+ T cells from 2 blood donors
Method: FIGS. 22A-D provide data showing the viability, cytotoxicity and apoptosis of cells treated with SMYD2 inhibitor X2. ApoTox-Glo™ Triplex Assays (Promega) were performed in AZ391-treated A2 J-Lat cells (A), A72 J-Lat cells (B), and primary CD4^+ T cells from 2 independent blood donors (C) and (D). […] All measurements were repeated at least three times and an average of one experiment of three technical replicates (±SD) is shown.

[4] = tested on: latent HIV-1 in CD4+ T cells from HIV-1-infected individuals; experiment: Intracellular HIV-1 mRNA (ddPCR) in CD4+ T cells from HIV-1-infected individuals treated ex vivo; assay type: cell-based
Excerpt: Four aviremic HIV-1-infected individuals were recruited from the SCOPE cohorts at the University of California. San Francisco. Table 2 details the characteristics of the study participants.
Peripheral blood mononuclear cells (PBMCs) from whole blood or continuous flow centrifugation leukapheresis product were purified using density centrifugation on a Ficoll-Hypaque gradient. Resting CD4^+ lymphocytes were enriched by negative depletion with an EasySepHuman CD4^+ T Cell Isolation Kit (Stemcell). Cells were cultured in RPMI medium supplemented with 10% fetal bovine serum, penicillin/streptomycin and 5 μM saquinavir. Five million resting CD4′ lymphocytes were stimulated with latency-reversing agents (LRAs) at the indicated concentrations (20-500 nM AZ391, 100 nM JQ1, 25 μl/1×10^6 T cells αCD3/αCD28 Dynabeads (Life Technologies) for 48 hours. After LRA treatment, cells were collected, lysed and total RNA was isolated with an RNeasy kit (Quiagen). A Superscript III One-Step RT-PCR system (Life Technologies) was used to generate and pre-amplify cell-associated viral mRNA. Reaction mixes contained 15 μl of a PCR mix containing reaction mix, Superscript III, primers (900 nM final concentration) and 10 μl purified RNA. Pre-amplification was carried out using the following steps: reverse transcription at 50° C. for 30 min, denaturation at 95° C. for 2 min, 10 cycles of amplification (94° C. 15 s, 55° C. 30 s, 68° C. 5 min) on a GeneAmp PCR system 9700 (Thermo Fisher). Subsequently, droplet digital PCR (ddPCR) was applied to quantify pre-amplified cDNA. Each 25 μl ddPCR mix comprised the ddPCR Probe Supermix (no dUTP), 900 nM primers, 250 nM probe, and 4 μl cDNA. The following cycling conditions were used: 10 minutes at 95° C. […] Finally, samples were amplified on a BioRad C1000 Thermocycler and analyzed using a BioRad QX100 ddPCR Reader. […]
Next, AZ391 was tested in CD4^+ T cells from HIV-1-infected individuals on suppressive ART. […] After 48 hours, levels of intracellular HIV-1 mRNA were measured by droplet digital RT-PCR using a previously published primer/probe set (Laird et al., 2015). […]

SMYD2 = SMYD2 (Homo sapiens, UniProt Q9NRG4); experiment: In vitro SMYD2 methylation assay of histone H4; assay type: biochemical; set-up: purchased Sigma-Aldrich
SMYD2, sequence (Q9NRG4 whole entry): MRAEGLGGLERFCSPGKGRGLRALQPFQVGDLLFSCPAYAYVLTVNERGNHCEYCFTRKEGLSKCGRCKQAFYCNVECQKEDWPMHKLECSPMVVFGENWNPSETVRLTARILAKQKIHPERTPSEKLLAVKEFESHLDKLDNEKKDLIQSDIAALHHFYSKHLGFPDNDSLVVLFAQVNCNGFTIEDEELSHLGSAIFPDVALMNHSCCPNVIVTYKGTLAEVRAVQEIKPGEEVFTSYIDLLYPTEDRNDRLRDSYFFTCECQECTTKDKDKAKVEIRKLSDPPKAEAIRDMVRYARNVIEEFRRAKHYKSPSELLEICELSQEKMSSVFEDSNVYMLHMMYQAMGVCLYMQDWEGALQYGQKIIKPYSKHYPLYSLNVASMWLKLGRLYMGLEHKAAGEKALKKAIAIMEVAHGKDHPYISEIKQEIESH
Method: In vitro Methylation assays were performed as described (Nishioka et al., 2002). For reactions, 2 gtg of histones (isolated from HEK293T cells), recombinant histone 4 (New England Biolabs), synthetic histone 4 as 1-21 and as 15-24 peptides (Cayman Chemical), or synthetic histone H4 as 1-21 with a K20A mutation (GenScript) were incubated with recombinant WT SMYD2 (Sigma-Aldrich) or SMYD2 Y240F (Active Motif) in a buffer containing 50 mM Tris-HCl, pH 9, 0.01% Tween 20, 2 mM DTT and 1.1 μCi of H3-labeled SAM (Perk-in Elmer) overnight at 30° C. Reaction mixtures were fractionated on 15% SDS-PAGE for proteins or on 10-20% Tris-Tricine gradient gels for peptides (BioRad). After Coomassie staining, gels were treated with Amplify. (GE Healthcare) for 30 min, dried and exposed to hyperfilm (GE Healthcare) overnight.

Compound: N#Cc1cc(C(=O)NCCCN2CCCC2)cc(-c2ccccc2N2CCN(CCc3c[nH]c4ccccc34)CC2)c1 [AZ391]
- cell permeability [1]: cell-permeable
- GFP-expressing cells compared with control-treated cells ([2]; A2 J-Lat cells): up to threefold more GFP-expressing cells than control-treated cells
- activation of HIV transcription / reactivation of the HIV-LTR (GFP) ([2]; A2 J-Lat cells, single agent): activated HIV transcription in a dose-dependent manner
- cell death ([2]; at the concentration that effectively activated HIV transcription): slight increase in cell death
- viability, cytotoxicity and caspase-3/7 activity [3]: reduced cell viability and increased cytotoxicity and caspase-3/7 activity at concentrations above 5 μM; also recorded: did not reduce viability nor increase cytotoxicity and caspase-3/7 activity at concentrations lower than 5 μM
- mean increase of intracellular HIV-1 mRNA levels ([4]; 500 nM, 48 hours, three additional donors): 1.5-10 fold
- intracellular HIV-1 mRNA, combination effect ([4]; combination with JQ1): no additive or synergistic effects
- intracellular HIV-1 mRNA levels ([4]; increasing concentrations (maximal 500 nM), 48 hours, one individual): increased intracellular HIV-1 mRNA levels in a dose-dependent manner
- methylation of recombinant human histone H4 by SMYD2 (SMYD2; full-length histone H4, 3H-SAM autoradiography): inhibited
- methylation of synthetic histone H4 peptides by SMYD2 (SMYD2; peptides aa 1-21 and aa 15-24): suppressed
